A short description of this experiment: Inhibition of Saccharomyces cerevisiae alpha-glucosidase using p-nitrophenyl alpha-D-glucoside as substrate incubated for 0.5 hrs followed by substrate addition and measured after 1 hr by colorimetric assay.

The values that follow come from ChEMBL document CHEMBL4414635, “Dasymaschalolactams A-E, Aristolactams from a Twig Extract of Dasymaschalon dasymaschalum” (J Nat Prod, 2019).

The structures appear in SMILES notation.

As for `COc1ccc([C@@H]2CC(=O)c3c(O)cc(O)c(O)c3O2)cc1`, the IC50 (in general, the concentration needed to halve the response being measured) stood at 256 µM.
`C[C@H]1O[C@H](O[C@H]2[C@H](O)[C@@H](O)[C@@H](O[C@H]3[C@H](O)[C@@H](O)C(O)O[C@@H]3CO)O[C@@H]2CO)[C@H](O)[C@@H](O)[C@@H]1N[C@H]1C=C(CO)[C@@H](O)[C@H](O)[C@H]1O` (some centres undefined) [ACARBOSE] gave an IC50 of 73.7 µM.
Next, `O=C(/C=C/c1ccc(O)cc1)NCCc1ccc(O)cc1` [N-P-COUMAROYL TYRAMINE]: 4.5 µM; `COc1cc(/C=C/C(=O)NCCc2ccc(O)cc2)ccc1O` [N-TRANS-FERULOYL TYRAMINE]: 24.7 µM.
